Measured values published in ChEMBL document CHEMBL1201862, “PubChem BioAssay data set” (2004).
Active and inactive are the calls of the source.

Assays:
[1] = target: Kallikrein-7 (Homo sapiens, UniProt P49862); test: Fluorescence Intensity-based biochemical primary high throughput dose response assay to identify activators of kallikrein-7 (K7) zymogen.
[2] = Trypanosoma cruzi growth suppression in host cells – NIH3T3 host cells, beta-gal luminescence, confirmation (AID 2044); type: functional, cell-based;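 also: intracellular parasites grown in NIH/3T3 mouse fibroblasts as host cells; luminescent beta-galactosidase reporter signal from transgenic T. cruzi replicating inside host cells; inhibitors lower the luminescence signal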
[3] = NIH3T3 cell viability loss – ATP luminescence, mouse fibroblasts, counter-screen, dose response (AID 2010); type: functional, cell-based;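 also: cells exposed to compound for about 90 hours before reading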
[4] = Luminescence Cell-Based Dose Retest to Confirm Inhibitors of Cancer Stem Cells. [Related pubchem assays (depositor defined):AID2717, AID2721]; type: functional; conditions: Homo sapiens
[5] = target: G-protein coupled receptor 183 (Homo sapiens, UniProt P32249); test: SAR confirmation of small molecule antagonists of the EBI2 receptor via a luminescent beta-arrestin assa.; type: functional
Chain of G-protein coupled receptor 183 (P32249 whole entry): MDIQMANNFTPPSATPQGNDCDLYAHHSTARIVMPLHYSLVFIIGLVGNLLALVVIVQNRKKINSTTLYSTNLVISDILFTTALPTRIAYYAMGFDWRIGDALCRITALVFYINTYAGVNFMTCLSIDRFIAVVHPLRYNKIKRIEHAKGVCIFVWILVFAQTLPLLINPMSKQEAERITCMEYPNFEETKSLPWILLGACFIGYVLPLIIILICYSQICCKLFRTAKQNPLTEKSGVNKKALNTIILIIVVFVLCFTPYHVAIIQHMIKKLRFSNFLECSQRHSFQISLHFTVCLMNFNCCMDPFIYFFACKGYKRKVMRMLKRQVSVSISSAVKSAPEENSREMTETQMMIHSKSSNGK

[6] = target: Voltage-gated inwardly rectifying potassium channel KCNH2 (Homo sapiens, UniProt Q12809); test: concentration-dependent hERG rescue from blockers – cell-based, thallium flux, dose response (AID 2121); type: ADME
Chain of Voltage-gated inwardly rectifying potassium channel KCNH2 (Q12809 whole entry): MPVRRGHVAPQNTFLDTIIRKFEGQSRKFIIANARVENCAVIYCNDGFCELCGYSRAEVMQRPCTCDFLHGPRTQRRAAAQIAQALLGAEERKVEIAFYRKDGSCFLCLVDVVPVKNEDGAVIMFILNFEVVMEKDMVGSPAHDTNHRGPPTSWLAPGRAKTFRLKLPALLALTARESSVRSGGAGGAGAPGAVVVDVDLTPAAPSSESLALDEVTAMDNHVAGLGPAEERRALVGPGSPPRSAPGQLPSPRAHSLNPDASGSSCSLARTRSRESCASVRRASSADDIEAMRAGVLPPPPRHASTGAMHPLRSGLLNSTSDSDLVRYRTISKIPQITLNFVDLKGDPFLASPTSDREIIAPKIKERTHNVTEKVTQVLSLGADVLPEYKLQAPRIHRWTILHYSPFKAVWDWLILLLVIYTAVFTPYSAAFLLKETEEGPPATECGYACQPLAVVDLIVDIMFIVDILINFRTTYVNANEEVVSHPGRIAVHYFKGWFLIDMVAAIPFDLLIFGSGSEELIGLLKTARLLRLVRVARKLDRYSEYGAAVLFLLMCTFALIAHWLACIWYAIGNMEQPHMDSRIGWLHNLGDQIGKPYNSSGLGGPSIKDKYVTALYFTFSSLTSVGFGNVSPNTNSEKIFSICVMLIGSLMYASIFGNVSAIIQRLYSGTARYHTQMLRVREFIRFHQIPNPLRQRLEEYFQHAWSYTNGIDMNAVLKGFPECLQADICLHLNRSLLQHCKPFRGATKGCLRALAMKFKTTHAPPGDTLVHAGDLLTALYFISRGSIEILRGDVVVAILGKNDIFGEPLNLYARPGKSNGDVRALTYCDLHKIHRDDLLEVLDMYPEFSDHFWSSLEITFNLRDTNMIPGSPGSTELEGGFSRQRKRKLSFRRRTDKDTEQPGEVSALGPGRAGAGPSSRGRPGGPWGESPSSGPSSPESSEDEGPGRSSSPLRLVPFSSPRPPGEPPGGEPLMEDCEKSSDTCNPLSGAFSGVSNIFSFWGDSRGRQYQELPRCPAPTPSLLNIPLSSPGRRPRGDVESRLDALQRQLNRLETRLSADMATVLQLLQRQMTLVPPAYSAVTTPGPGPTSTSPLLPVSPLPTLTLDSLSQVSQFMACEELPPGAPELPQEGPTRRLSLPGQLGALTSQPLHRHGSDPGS

[7] = target: Ephrin type-A receptor 4 (Mus musculus, UniProt Q03137); test: EphA4 ligand-binding antagonists – biochemical, colorimetric, mouse EphA4, primary screen (AID 689); type: functional
Chain of Ephrin type-A receptor 4 (Q03137 whole entry): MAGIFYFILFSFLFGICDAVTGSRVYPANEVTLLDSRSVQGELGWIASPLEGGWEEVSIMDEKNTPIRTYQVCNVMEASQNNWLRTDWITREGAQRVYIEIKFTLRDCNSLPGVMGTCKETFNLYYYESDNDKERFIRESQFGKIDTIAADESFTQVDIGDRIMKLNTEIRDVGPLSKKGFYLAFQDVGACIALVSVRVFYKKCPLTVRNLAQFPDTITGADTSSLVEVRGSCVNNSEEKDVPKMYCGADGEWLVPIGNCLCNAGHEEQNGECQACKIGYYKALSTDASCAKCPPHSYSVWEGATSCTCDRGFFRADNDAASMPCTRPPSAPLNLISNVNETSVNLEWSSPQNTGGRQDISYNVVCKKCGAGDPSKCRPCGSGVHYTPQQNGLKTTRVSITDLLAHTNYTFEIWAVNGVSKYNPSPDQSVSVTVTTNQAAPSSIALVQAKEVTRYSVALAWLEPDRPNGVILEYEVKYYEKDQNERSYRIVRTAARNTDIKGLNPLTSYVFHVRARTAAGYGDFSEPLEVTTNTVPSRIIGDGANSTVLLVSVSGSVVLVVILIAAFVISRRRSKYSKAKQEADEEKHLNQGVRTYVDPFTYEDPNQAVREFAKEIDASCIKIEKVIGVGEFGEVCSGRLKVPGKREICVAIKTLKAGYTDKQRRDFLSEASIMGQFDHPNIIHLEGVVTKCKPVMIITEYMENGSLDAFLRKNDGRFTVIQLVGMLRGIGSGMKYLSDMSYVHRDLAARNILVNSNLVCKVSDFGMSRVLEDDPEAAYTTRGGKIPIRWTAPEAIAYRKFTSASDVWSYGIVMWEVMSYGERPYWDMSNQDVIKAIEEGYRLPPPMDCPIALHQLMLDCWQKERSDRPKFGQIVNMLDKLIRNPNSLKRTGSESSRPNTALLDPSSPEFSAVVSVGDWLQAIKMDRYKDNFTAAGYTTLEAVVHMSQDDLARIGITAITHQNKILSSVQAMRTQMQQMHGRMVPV

[8] = IC50 of insulin release inhibition, rat insulinoma INS-1E line, 5 mM glucose, cell-based (AID 1117331); type: functional
[9] = target: T1, 5-hydroxytryptamine receptor 1A (Homo sapiens, UniProt P08908); type: functional
T1 sequence (P08908 whole entry): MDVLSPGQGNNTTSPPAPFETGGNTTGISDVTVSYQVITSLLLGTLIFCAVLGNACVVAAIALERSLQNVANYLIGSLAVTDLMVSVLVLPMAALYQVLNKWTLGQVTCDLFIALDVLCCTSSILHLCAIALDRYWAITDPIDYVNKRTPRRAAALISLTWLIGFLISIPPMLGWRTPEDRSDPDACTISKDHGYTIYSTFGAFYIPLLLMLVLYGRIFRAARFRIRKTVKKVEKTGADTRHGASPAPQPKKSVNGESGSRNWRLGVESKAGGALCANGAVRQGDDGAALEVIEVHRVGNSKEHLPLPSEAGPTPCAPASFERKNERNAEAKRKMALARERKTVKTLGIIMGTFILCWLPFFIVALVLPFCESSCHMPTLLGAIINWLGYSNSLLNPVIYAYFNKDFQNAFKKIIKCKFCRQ

[10] = viability of uninfected HEp-2 cells – cell-based, HTS, cytotoxicity control for RSV inhibitor project, dose response (AID 2410); type: functional; conditions: human respiratory syncytial virus
[11] = target: T2, High affinity choline transporter 1 (Homo sapiens, UniProt Q9GZV3); test: human choline transporter blockers, potency – cell-based, 5-point CRC, membrane potential dye, dose response (AID 504840); type: functional
T2 sequence (Q9GZV3 whole entry): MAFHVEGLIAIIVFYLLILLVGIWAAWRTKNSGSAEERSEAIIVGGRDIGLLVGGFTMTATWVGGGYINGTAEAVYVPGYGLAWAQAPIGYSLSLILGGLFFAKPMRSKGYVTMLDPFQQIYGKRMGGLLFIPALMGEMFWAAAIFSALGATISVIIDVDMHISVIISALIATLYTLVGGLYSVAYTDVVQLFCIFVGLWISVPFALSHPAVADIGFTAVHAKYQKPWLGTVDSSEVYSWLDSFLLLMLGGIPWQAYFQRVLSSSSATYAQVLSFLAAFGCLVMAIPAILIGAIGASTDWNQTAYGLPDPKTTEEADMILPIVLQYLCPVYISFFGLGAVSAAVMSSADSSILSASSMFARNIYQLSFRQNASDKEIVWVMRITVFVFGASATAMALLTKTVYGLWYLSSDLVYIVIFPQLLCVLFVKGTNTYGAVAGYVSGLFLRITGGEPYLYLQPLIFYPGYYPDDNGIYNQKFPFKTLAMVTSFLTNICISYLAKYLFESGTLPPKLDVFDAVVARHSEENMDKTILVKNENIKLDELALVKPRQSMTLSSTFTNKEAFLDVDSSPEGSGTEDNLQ

[12] = target: 26S proteasome non-ATPase regulatory subunit 14 (Homo sapiens, UniProt O00487); test: inhibition of proteasome subunit RPN11 – biochemical, fluorescence polarization, uHTS hits, confirmation (AID 602368); type: functional
Chain of 26S proteasome non-ATPase regulatory subunit 14 (O00487 whole entry): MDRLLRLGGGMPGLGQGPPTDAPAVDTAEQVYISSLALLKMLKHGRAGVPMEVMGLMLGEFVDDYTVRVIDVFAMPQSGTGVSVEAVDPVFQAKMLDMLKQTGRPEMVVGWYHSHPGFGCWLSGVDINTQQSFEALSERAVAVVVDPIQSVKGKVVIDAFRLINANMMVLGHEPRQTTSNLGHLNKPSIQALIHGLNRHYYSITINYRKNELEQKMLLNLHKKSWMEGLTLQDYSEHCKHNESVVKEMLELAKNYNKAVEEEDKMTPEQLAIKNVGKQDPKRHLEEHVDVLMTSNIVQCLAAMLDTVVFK

[13] = target: DNA (cytosine-5)-methyltransferase 1 (Homo sapiens, UniProt P26358); test: inhibition of DNA methylation by DNMT1 – biochemical, fluorescent molecular beacon, confirmation (AID 602386); type: functional
Chain of DNA (cytosine-5)-methyltransferase 1 (P26358 whole entry): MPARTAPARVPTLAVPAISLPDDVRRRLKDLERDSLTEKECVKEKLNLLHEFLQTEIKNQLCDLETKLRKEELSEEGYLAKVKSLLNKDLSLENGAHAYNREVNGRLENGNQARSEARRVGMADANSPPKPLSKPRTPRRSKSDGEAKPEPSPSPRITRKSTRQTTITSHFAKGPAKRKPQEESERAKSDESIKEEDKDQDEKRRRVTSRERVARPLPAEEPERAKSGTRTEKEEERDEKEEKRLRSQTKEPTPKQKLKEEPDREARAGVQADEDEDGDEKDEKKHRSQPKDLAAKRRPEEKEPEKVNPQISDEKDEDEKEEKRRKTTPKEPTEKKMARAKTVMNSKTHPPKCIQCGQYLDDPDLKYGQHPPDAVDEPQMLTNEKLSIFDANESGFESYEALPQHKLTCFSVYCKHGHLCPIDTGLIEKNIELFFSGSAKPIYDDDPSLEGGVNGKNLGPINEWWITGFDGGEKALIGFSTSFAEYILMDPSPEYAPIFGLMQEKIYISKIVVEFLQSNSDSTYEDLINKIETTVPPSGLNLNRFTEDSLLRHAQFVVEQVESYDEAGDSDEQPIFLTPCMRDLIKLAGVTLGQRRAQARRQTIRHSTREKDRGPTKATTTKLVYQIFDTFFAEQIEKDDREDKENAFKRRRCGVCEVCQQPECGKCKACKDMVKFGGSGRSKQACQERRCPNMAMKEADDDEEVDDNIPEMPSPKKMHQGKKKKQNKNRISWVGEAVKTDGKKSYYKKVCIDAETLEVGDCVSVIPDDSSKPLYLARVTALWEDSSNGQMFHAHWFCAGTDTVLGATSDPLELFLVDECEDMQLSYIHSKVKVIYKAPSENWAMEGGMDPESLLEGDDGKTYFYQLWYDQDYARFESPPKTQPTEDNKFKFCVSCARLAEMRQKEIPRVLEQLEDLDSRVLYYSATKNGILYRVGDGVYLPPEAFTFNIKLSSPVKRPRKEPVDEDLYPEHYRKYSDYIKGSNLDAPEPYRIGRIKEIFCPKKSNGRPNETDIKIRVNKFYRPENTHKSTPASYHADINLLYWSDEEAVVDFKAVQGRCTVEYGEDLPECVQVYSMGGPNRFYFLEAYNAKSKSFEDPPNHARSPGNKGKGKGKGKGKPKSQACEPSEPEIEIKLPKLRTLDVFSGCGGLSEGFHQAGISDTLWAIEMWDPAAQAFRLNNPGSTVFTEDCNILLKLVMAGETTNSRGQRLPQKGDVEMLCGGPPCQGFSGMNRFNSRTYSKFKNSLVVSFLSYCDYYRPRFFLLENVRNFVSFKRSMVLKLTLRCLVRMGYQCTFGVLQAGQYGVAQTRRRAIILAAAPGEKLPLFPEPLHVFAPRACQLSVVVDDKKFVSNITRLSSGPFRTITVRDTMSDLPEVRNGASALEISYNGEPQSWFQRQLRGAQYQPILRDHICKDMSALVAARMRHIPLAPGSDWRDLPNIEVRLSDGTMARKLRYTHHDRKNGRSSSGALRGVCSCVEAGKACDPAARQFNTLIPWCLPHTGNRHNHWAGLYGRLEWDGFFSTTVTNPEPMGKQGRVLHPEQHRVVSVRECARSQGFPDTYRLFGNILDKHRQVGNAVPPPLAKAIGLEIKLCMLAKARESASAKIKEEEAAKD

[14] = target: T3, Bifunctional protein GlmU (Mycobacterium tuberculosis, UniProt P9WMN3); test: Inhibitors of Mycobacterial Glucosamine-1-phosphate acetyl transferase (GlmU). Secondary screen.; design: species or system Mycobacterium tuberculosis H37Rv
T3 sequence (P9WMN3 whole entry): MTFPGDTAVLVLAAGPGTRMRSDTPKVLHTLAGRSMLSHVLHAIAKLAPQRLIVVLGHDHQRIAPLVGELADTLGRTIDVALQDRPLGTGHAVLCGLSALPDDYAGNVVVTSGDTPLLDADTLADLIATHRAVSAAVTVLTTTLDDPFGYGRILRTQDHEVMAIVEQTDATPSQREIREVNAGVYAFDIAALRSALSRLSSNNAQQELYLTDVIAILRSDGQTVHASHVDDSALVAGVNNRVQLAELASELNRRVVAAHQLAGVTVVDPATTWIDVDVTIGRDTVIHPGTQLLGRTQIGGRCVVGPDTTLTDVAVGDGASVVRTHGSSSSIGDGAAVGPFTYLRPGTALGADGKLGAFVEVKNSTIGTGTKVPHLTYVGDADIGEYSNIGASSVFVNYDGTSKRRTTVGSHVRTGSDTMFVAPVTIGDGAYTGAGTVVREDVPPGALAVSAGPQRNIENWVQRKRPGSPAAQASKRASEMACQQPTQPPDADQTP

[15] = target: 72 kDa type IV collagenase (Homo sapiens, UniProt P08253); test: Dose Response validation of uHTS RPN11 inhibitor hits using a MMP-2 Fluorescence assay.; type: functional
[16] = target: T4, ORF 73 (Human herpesvirus 8, UniProt O40947); test: KSHV LANA DNA-binding disruption – biochemical, fluorescence polarization, cherry-picked samples, dose response (AID 504725); design: species or system Human gammaherpesvirus 8;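 also: fluorescence polarization of a labeled DNA duplex reporting LANA DNA binding; potency is for inhibitors that block LANA binding to the DNA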
T4 sequence (O40947 whole entry): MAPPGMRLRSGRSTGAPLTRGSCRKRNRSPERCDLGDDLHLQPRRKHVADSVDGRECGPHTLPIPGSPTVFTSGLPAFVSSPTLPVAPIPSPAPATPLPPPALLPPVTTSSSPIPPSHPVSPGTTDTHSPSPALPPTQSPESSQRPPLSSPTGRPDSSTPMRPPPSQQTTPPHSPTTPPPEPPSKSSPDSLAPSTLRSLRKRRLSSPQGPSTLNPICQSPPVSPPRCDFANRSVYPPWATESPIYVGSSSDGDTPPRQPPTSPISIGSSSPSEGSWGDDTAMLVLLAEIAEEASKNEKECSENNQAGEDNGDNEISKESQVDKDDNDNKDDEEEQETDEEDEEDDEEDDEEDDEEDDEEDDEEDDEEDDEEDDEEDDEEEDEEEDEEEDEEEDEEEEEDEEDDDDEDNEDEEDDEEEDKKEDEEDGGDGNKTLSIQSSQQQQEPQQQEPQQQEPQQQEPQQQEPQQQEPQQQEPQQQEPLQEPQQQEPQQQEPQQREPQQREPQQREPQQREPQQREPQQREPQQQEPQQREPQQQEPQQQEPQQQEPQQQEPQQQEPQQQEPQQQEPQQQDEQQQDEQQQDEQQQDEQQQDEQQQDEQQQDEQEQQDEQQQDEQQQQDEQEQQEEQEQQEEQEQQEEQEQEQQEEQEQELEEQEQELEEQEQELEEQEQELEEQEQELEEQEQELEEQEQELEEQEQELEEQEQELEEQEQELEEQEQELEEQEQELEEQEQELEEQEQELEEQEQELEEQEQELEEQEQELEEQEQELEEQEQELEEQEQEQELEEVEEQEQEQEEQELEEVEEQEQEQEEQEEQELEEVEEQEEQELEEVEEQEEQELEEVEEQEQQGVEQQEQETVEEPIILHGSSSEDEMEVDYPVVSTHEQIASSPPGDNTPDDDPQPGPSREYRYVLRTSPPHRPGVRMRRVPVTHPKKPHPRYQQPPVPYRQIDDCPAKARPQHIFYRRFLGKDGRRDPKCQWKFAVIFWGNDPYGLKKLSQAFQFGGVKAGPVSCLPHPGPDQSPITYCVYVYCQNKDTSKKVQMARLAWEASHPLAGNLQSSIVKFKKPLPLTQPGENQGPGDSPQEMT

[17] = target: Prothrombin (Bos taurus, UniProt P00735); test: thrombin protease inhibitors – biochemical, fluorescence polarization, uHTS hits, dose response (AID 602369); type: functional
[18] = target: T5, 14-3-3 protein gamma (Homo sapiens, UniProt P61981); test: modulators of 14-3-3 gamma client binding – dose response (AID 711); type: functional
T5 sequence (P61981 whole entry): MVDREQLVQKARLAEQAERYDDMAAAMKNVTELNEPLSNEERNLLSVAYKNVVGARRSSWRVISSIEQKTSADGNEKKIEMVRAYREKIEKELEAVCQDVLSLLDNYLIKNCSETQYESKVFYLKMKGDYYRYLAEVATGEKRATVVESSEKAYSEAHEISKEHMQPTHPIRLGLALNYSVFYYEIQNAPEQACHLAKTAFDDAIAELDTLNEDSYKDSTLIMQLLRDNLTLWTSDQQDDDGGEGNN

[19] = target: DNA dC->dU-editing enzyme APOBEC-3G (Homo sapiens, UniProt Q9HC16); type: functional;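 also: Dose-response counterscreen measuring inhibition of APOBEC3G DNA deaminase activity, run while confirming APOBEC3A inhibitors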
Chain of DNA dC->dU-editing enzyme APOBEC-3G (Q9HC16 whole entry, the tested form may be a part): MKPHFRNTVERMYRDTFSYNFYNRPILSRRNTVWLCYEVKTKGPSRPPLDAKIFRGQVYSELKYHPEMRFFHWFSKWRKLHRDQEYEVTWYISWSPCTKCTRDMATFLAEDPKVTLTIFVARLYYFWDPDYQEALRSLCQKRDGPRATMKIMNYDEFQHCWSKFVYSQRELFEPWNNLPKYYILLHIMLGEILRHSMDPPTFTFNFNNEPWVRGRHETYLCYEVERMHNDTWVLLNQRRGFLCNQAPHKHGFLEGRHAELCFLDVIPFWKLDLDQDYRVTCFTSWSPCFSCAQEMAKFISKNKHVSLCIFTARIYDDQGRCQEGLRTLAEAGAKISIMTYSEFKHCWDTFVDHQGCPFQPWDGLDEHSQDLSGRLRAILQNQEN

[20] = target: T6, RNA-binding protein pos-1 (Caenorhabditis elegans, UniProt G5EF15); test: disruptors of C. elegans POS-1 RNA interaction – biochemical, fluorescence polarization, dose response (AID 1964);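 also: purified POS-1 fused to maltose binding protein made in E. coli; potency of compounds blocking POS-1 binding to fluorescent RNA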
T6 sequence (G5EF15 whole entry): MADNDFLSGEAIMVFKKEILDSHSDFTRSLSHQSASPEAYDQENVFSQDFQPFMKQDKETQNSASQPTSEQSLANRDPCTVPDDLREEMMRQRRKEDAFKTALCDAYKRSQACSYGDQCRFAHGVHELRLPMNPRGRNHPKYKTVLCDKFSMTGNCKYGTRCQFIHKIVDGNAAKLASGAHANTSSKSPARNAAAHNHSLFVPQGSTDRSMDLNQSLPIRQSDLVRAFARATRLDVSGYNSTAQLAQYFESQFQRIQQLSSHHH

[21] = target: T7, Zinc finger protein mex-5 (Caenorhabditis elegans, UniProt Q9XUB2); test: potency of MEX-5 RNA-binding blockers – biochemical, C. elegans, fluorescence polarization, dose response (AID 1960)
T7 sequence (Q9XUB2 whole entry): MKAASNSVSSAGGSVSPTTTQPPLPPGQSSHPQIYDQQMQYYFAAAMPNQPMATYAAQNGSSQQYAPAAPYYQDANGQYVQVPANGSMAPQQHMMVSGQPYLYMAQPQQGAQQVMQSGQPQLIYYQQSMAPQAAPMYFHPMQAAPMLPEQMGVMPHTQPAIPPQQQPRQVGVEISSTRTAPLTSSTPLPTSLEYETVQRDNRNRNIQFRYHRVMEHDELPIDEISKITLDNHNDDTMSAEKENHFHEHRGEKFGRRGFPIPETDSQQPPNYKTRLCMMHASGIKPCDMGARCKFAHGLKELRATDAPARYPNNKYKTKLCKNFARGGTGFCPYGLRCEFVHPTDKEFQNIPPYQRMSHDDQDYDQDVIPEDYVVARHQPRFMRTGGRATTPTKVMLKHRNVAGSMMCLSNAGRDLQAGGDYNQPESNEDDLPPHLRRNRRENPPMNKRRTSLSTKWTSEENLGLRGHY

[22] = target: DNA dC->dU-editing enzyme APOBEC-3A (Homo sapiens, UniProt P31941); test: Dose Response confirmation of small molecule APOBEC3A DNA Deaminase Inhibitors via a fluorescence-based single-stranded DNA deaminase assay. [Related pubchem assays (depositor defined):AID493011, AID493024]; type: functional

Chain of Kallikrein-7 (P49862 whole entry): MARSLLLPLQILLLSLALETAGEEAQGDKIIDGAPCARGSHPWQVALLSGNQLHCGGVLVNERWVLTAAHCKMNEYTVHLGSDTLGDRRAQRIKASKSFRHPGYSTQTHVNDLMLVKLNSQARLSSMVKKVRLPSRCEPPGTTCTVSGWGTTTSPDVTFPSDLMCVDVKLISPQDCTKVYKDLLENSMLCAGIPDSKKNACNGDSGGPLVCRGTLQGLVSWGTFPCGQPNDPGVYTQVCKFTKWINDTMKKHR

Cc1cc(Nc2cccc(F)c2)nc(-c2ccccc2O)n1
EC50 [1]: > 69.5 µM (inactive) | EC50 [2]: 4.15 µM (active) | EC50 [3]: > 60 µM (not active) | AC50 [4]: 3.68 µM (active)

O=C(/C=C/c1ccc(F)cc1)N1CCN(S(=O)(=O)c2cc(Cl)ccc2Cl)CC1
IC50 [5]: 0.0219 µM (active)

O=C1C2CC=CCC2C(=O)N1c1ccc(Cc2ccncc2)cc1 (stereo not given)
EC50 [6]: 0.86 µM (active)

C/C(=C\C(=O)c1ccccc1)NNc1nc2ccccc2s1
IC50 [7]: > 100 µM (not active)

CC(CCc1ccccc1)NC(C)C(O)c1ccc(O)cc1 (stereo not given) [NYLIDRIN]
IC50 [8]: 14.5 µM (inactive)

CCOC(=O)c1sc(NN=C(C(=O)OC)C(=O)OC)c(C(=O)OCC)c1C
EC50 [6]: 0.21 µM (active)

Cc1ccc(NC(=O)C2=CC(c3cccs3)=NS(=O)(=O)N2C)cc1
EC50 [1]: 33.9 µM (inactive)

Cc1cccc(N2CCN(C(=O)Cc3c(C(=O)O)[nH]c4ccc(Cl)cc34)CC2)c1C
EC50 [9]: > 50 µM (not active) | CC50 [10]: 20.4 µM (active) | IC50 [11]: 10.8 µM (active)

COC(=O)c1ccccc1NC(=O)CCS(=O)(=O)c1ccc(Br)cc1
IC50 [12]: 14 µM (active) | IC50 [13]: 3.69 µM (active) | IC50 [14]: 28.6 µM (active) | IC50 [15]: 22.5 µM (active) | AC50 [16]: 31.5 µM (active) | IC50 [17]: > 100 µM (inactive)

COc1ccc(-n2ncc3c(N4CCCc5ccccc54)ncnc32)cc1
IC50 [18]: > 50 µM (not active)

Cc1nn(-c2ccccc2)c2c1C(c1cccnc1)N1C=C(S(=O)(=O)N3CCCCC3)C=CC1=N2 (stereo not given)
IC50 [7]: > 100 µM (not active)

CSc1nnc(SCc2nc3sc(C(=O)O)c(C)c3c(=O)[nH]2)s1
IC50 [19]: 24.6 µM (active) | IC50 [14]: 76.2 µM (active) | EC50 [20]: 25.4 µM (active) | EC50 [21]: 30.6 µM (active) | IC50 [22]: 14 µM (active)

CCOc1ccc(N2C(=O)NC(=O)/C(=C\NCCN3CCNCC3)C2=O)cc1
IC50 [18]: > 50 µM (not active)

O=C(Nc1cccc(-c2cn3ccsc3n2)c1)c1ccccc1
EC50 [9]: > 50 µM (not active)

O=C(/C=C/c1ccc(Br)cc1)N1CCN(C(=O)c2ccc(Cl)cc2)CC1
IC50 [5]: 0.000409 µM (active)

CC(C)(C)c1ccc(S(=O)(=O)N2CCN(C(=O)/C=C/c3ccc(F)cc3)CC2)cc1
IC50 [5]: 0.0124 µM (active)
